Tests used:
[1] = molecular target: T1, thromboxane synthetase (Homo sapiens, UniProt P24557); test: in vitro inhibition of thromboxane synthetase (TxB2/PGF2 α+β ratio from 14C-arachidonic acid); format: biochemical; conditions: 30 minutes incubation
T1 construct: crude microsomal preparation of thromboxane synthetase from lysed human platelets; from tissue; host or cells: lysed human platelets, crude microsomal preparation
T1 sequence (P24557 1-533): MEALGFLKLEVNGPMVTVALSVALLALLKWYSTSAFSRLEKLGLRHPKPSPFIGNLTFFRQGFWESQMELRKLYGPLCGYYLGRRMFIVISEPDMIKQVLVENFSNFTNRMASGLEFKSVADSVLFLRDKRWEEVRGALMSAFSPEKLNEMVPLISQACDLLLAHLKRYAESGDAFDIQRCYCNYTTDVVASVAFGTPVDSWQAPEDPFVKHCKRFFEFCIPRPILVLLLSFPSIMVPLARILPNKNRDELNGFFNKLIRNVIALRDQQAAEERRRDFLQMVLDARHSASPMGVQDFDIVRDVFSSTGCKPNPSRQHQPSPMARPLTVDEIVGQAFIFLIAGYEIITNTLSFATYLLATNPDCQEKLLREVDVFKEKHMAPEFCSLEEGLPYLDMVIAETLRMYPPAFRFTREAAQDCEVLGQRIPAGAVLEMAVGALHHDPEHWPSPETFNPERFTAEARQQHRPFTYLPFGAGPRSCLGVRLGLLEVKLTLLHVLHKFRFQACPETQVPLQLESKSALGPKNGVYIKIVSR
Protocol: Res. Comm. 74, 1432 (1977); the testing procedure is as follows:
^14 C-Arachidonic acid is incubated with an enzyme preparation consisting of solubilized and partially purified prostaglandin cyclo-oxygenase from sheep seminal vesicles and a crude microsomal preparation of thromboxane synthetase from lysed human platelets. The test compound (dissolved in buffer, or if necessary, in a small amount of ethanol) is added to the incubation medium. At the end of the incubation period (30 minutes), Prostaglandin E2 (PGE2) is reduced to a mixture of Prostaglandin F2 α and F2 β [PGF2 (α+β)] by addition of sodium borohydride. The radioactive products and excess substrate are extracted into ethyl acetate; the extract is evaporated to dryness; the residue is dissolved in acetone, spotted on thin-layer plates and chromatographed in the solvent system toluene: acetone: glacial acetic acid (100 volumes: 100 volumes: 3 volumes). The radioactive zones are located; those corresponding to Thromboxane B2 (TxB2) and PGF2 α+β are transferred to liquid scintillation vials and counted. The ratio of counts for TxB2 /PGF2 α+β is calculated for each concentration of test compound and IC50 values are determined graphically as the concentration of test compound at which the ratio of TxB2 /PGF2 α+β is reduced to 50% of the control value.

[2] = test system: 6-keto-PGF1 α; test: in vivo plasma level of 6-keto-PGF1 α (prostacyclin metabolite) in rats after ionophore A23187; conditions: rat; ionophore A23187 0.5 mg/kg i.v. two hours after dosing
Protocol: (§1) The inhibition of the synthesis and the reduction of plasma levels of thromboxane is determined in vivo or administration to rats in the following manner (as adapted from the procedures described by Tai et al. in Anal. Biochem. 87:343, 1978 and by Salmon in Prostaglandins 15:383, 1978):
(§2) Rats are dosed with vehicle or test drug and injected intravenously with ionophore A23187 (0.5 mg/kg) two hours later. Blood is collected for analysis 2 minutes after the ionophore injection. A single aliquot of each plasma sample is assayed for thromboxane B2 and another aliquot for 6-keto-PGF1 α (the stable metabolite of prostacyclin, by radioimmunoassay.

[3] = test system: thromboxane B2; test: in vivo reduction of plasma thromboxane B2 in rats after ionophore A23187; conditions: rat, oral dose of 5 mg/Kg or lower; ionophore A23187 0.5 mg/kg i.v. two hours after dosing
Protocol: as §1, §2

Row | Compound | IC50 [1] [nM] | increase in the plasma level of the prostacyclin metabolite 6-keto-PGF1 α [2] | reduction of the plasma concentration of thromboxane B2 [3]
1 | c1cc(CCCCc2nnn[nH]2)n2cncc2c1 [5-[4-(5-tetrazolyl)butyl]-imidazo[1,5-a]pyridine] | ~10 | significant increase | over 50%
2 | O=C(CCCCCc1cccc2cncn12)NO [5-[5-(hydroxycarbamoyl)pentyl]-imidazo[1,5-a]-pyridine] | ~300 | – | –
3 | O=C(O)CCCCCc1c(OCc2ccccc2)ccc2cncn12 [6-benzyloxy-5-(5-carboxypentyl)imidazo[1,5-a]pyridine] | ~3 | – | –

Reference: patent publication US4470986A, “Certain imidazo (1,5-A) pyridine aliphatic carboxylic acid derivatives and their use as selective thromboxane inhibitors” (Ciba-Geigy Corporation, priority 1982, dated 1984)
